# Assay results published in patent publication US20250043299A1, “POINT MUTATIONS THAT BOOST AROMATIC AMINO ACID PRODUCTION AND CO2 ASSIMILATION IN PLANTS” (Wisconsin Alumni Research Foundation, priority 2021, published 2025).
# Like-named read-outs stand apart in the source and are kept apart here.
# Legend:
# [1] = tested on: Arabidopsis Col-0 WT plants; assay: Plant growth on media containing ILA or IPA (feeding); type: in vivo, Arabidopsis thaliana; details: IPA <10 μM; ILA 0-1000 μM in media
# From the text: (A) A structural model of A. thaliana DHS2 (AtDHS2, purple) generated from the P. aeruginosa DHS (PaDHS, white) with Trp (magenta) bound. Residues corresponding to the sota mutations mapped onto the AtDHS2 model are highlighted in yellow. (B) Selected regions of the amino acid sequence alignment of PaDHS and AtDHS enzymes, with the positions of the sota mutations indicated by blue, red, green arrows for AtDHS1, AtDHS2, and AtDHS3, respectively. […] Data are means±SEM (n=3). (D) Screening of AAAs and AAA-derived metabolites as potential inhibitors of DHS1^WT and DHS2^WT. *P≤0.05, **P≤0.01, ***P≤0.001, and ****P≤0.0001 denote significant differences by one-way ANOVA with Dunnett's test against the corresponding “No effector” samples. Data are means±SEM (n=3). The dotted horizontal lines separate four sets of independent experiments. […] Data are means±SEM (n=3). (G) Plant picture (left) and fresh weight measurement (right) of 3-week-old Col-0, sotaB4, and sotaA4 mutants (Col-0 background) on the media containing ILA at 0, 250, 500, or 1000 μM. *P≤0.05 and **P≤0.01 denote significant differences by one-way ANOVA with Dunnett's test against the corresponding Col-0 samples (n=12 to 16 independent plant samples). […]
# [2] = biological target: T1, DHS1^WT (Arabidopsis thaliana, UniProt P29976); assay: DHS enzyme assay (colorimetric), recombinant DHS1^WT; type: biochemical
# T1 construct: without the predicted plastid transit peptide (amino acid residues; 49-525, 34-507, and 52-527, respectively); made in house; host or cells: E. coli Rosetta-2
# Description: (§1) To generate recombinant DHS proteins the pET28a vectors carrying the A. thaliana DHS1 (AtDHS1), AtDHS2, or AtDHS3 WT sequence without the predicted plastid transit peptide (amino acid residues; 49-525, 34-507, and 52-527, respectively) were expressed in E. coli Rosetta-2 cells and purified using Ni-affinity chromatography, exactly as was conducted previously (9). To generate DHS proteins with individual sota mutations via site-directed mutagenesis, these pET28a plasmid templates were diluted by 500-fold, mixed with 0.04 U/μL Phusion DNA polymerase (Thermo Scientific), 0.2 mM deoxynucleoside triphosphates (dNTPs), 1× Phusion reaction buffer (Thermo Scientific), and 0.5 μM forward and reverse mutagenesis primers (Table 10). The PCR reaction was run using the following protocol: 98° C. for 30 s followed by 20 cycles of 10 s at 98° C., 20 s at 70° C., 4.5 min at 72° C. with a final extension at 72° C. for 10 min. The PCR products were purified using a QIAquick Gel Extraction Kit (QIAGEN), treated with FastDigest DpnI (Thermo Scientific) to digest methylated plasmid template DNA for 20 min at 37° C., and transformed into E. coli cells. The mutagenized pET28a plasmids were sequenced to confirm that no errors were introduced during the mutagenesis process.
# (§2) The DHS enzyme assays were conducted using the colorimetric method that we recently described (9). Briefly, the enzyme solution (7.7 μl) containing 50 mM Hepes (pH 7.4) was preincubated with an effector molecule(s) at room temperature for 15 min. For assays using recombinant protein and enzyme fractions isolated from plant leaves, 0.01 to 0.1 μg and approximately 50 μg of proteins were used, respectively. After adding 0.5 μl of 0.1 M dithiothreitol, the samples were further incubated at room temperature for 15 min. During these incubations, the substrate solution containing 50 mM Hepes (pH 7.4), 2 mM MnCl2, 4 mM E4P, and 4 mM PEP at final concentration was preheated at 37° C. The enzyme reaction was started by adding 6.8 μl of the substrate solution, then incubated at 37° C. for 30 min, and terminated by adding 30 μl of 0.6 M trichloroacetic acid. After a brief centrifugation, 5 μl of 200 mM NaIO4 (sodium meta-periodate) in 9 N H3PO4 was added to oxidize the enzymatic product and to incubate at 25° C. for 20 min. To stop the oxidation reaction, 20 μl of 0.75 M NaAsO2 (sodium arsenite), which was dissolved in 0.5 M Na2SO4 and 0.05 M H2SO4, was added and immediately mixed. After 5 min of incubation at room temperature, one-third of the sample solution was transferred to a new tube to be mixed with 50 μl of 40 mM thiobarbituric acid and incubated at 99° C. for 15 min in a thermal cycler. The mixture was added to 600 μl of cyclohexanone in eight-strip solvent-resistant plastic tubes, mixed vigorously, and centrifuged at 4500 g for 3 min to separate water- and cyclohexanone-based layers for the extraction off the developed pink chromophore. The absorbance of the pink supernatant was read at 549 nm with the microplate reader (Infinite 200 PRO, TECAN) to calculate DAHP production with the molar extinction coefficient at 549 nm (ε=549 nm) of 4.5×10^4 M^−1 cm^−1. Reaction mixtures with boiled enzymes were run in parallel and used as negative controls to estimate the background signal.
# [3] = biological target: T2, DHS2^WT (Arabidopsis thaliana, UniProt Q00218); assay: DHS enzyme assay, recombinant DHS2^WT; type: biochemical; details: FIG. 2D
# T2 construct: without the predicted plastid transit peptide (amino acid residues; 49-525, 34-507, and 52-527, respectively); made in house; host or cells: E. coli Rosetta-2
# Description: as §1, §2
# [4] = biological target: T3, Arabidopsis thaliana DHS1 (SEQ ID NO:1) variant DHS1^B4 (sotaB4), G244R (Arabidopsis thaliana, UniProt P29976, G244R); assay: DHS enzyme assay with effector, DHS1 sotaB4; type: biochemical
# T3 construct: without the predicted plastid transit peptide (amino acid residues; 49-525, 34-507, and 52-527, respectively); made in house; host or cells: E. coli
# Description: as §1, §2
# [5] = biological target: T4, Arabidopsis thaliana DHS2 (SEQ ID NO:2) variant DHS2^A4 (sotaA4), G222S (Arabidopsis thaliana, UniProt Q00218, G222S); assay: biochemical; type: biochemical
# T4 construct: without the predicted plastid transit peptide (amino acid residues; 49-525, 34-507, and 52-527, respectively); made in house; host or cells: E. coli
# Description: as §1, §2
# [6] = tested on: Arabidopsis thaliana DHS^WT isoforms (DHS1, DHS2, DHS3), SEQ ID NO:1-3; details: reference 9; cited from earlier work
# [7] = biological target: T5, Arabidopsis thaliana DHS1 (AtDHS1), wild type (DHS1^WT), SEQ ID NO:1 (Arabidopsis thaliana, UniProt P29976); details: values for AAAs, chorismate, caffeate from Yokoyama et al., Plant Cell, 2021; cited from earlier work
# T5 construct: without the predicted plastid transit peptide (amino acid residues; 49-525, 34-507, and 52-527, respectively); made in house; host or cells: E. coli Rosetta-2
# [8] = biological target: T6, Arabidopsis thaliana DHS2 (AtDHS2), wild type (DHS2^WT), SEQ ID NO:2 (Arabidopsis thaliana, UniProt Q00218); details: DHS2^WT; values for AAAs, chorismate, caffeate from Yokoyama et al., Plant Cell, 2021; cited from earlier work
# T6 construct: without the predicted plastid transit peptide (amino acid residues; 49-525, 34-507, and 52-527, respectively); made in house; host or cells: E. coli Rosetta-2
# [9] = biological target: T7, DHS2^A4 (Arabidopsis thaliana, UniProt Q00218, G222S); type: biochemical
# T7 construct: without the predicted plastid transit peptide (amino acid residues; 49-525, 34-507, and 52-527, respectively); made in house; host or cells: E. coli
# Description: as §1, §2
# [10] = biological target: T8, DHS1^B4 (Arabidopsis thaliana, UniProt P29976, G244R); assay: DHS enzyme assay, recombinant DHS1^B4; type: biochemical
# T8 construct: without the predicted plastid transit peptide (amino acid residues; 49-525, 34-507, and 52-527, respectively); made in house; host or cells: E. coli
# Description: as §1, §2
# [11] = tested on: Nicotiana benthamiana leaves; assay: Transient expression of Arabidopsis DHS1 WT and B4 in Nicotiana benthamiana, AAA levels by LC-MS; type: in vivo; details: two days after inoculation
# Description: Vectors for plant expression were made as previously described using MoClo modular cloning technology. For transient expression in Nicotiana benthamiana, gene expression of the protein coding sequence (CDS) of DHS1 WT and B4 were driven by a 1987-bp sequence obtained from the upstream region of the ubiquitin 10 gene (At4g05320) from Arabidopsis. In addition, a synthetic hemagglutinin (HA) tag comprising 6 repeats of the sequence […] (SEQ ID NO:75) was added to the C-terminus of the protein for quantification of protein expression using an anti-HA antibody. Vectors containing the promoter, CDS, epitope HA-tag, and a terminator were transformed into Agrobacterium tumefaciens via electroporation.
# Positive transformants were used to perform transient expression in Nicotiana benthamiana. Single colony bacteria were grown in LB media supplemented with kanamycin (100 mg/L) and gentamycin (100 mg/L) at 28° C. with constant agitation at 200 rpm. […] After complete resuspension, bacteria concentration was evaluated by spectrometry using optical density (OD) at 600 nm. […]
# Each inoculated leaf was separated into 4 quadrants, and each quadrant received a different bacteria solution containing a different vector. […] Samples for metabolite analysis were collected two days after inoculation and processed as previously described for quantification of aromatic amino acids.
# [12] = tested on: plant DHSs; details: prior reports (9); cited from earlier work
# T3 sequence (P29976 49-525 G244R): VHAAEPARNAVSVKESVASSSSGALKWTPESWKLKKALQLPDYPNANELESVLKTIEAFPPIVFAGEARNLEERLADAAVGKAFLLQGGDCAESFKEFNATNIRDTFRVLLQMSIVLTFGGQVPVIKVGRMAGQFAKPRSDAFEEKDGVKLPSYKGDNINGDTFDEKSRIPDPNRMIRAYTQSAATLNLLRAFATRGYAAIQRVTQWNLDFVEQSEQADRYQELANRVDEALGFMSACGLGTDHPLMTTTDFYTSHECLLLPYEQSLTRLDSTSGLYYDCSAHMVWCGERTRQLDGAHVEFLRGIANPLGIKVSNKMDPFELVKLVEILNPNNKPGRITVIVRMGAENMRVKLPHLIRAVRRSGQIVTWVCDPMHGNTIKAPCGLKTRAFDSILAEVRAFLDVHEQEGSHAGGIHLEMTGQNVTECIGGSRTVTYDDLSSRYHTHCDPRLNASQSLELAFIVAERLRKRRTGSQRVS
# T1 sequence (P29976 49-525): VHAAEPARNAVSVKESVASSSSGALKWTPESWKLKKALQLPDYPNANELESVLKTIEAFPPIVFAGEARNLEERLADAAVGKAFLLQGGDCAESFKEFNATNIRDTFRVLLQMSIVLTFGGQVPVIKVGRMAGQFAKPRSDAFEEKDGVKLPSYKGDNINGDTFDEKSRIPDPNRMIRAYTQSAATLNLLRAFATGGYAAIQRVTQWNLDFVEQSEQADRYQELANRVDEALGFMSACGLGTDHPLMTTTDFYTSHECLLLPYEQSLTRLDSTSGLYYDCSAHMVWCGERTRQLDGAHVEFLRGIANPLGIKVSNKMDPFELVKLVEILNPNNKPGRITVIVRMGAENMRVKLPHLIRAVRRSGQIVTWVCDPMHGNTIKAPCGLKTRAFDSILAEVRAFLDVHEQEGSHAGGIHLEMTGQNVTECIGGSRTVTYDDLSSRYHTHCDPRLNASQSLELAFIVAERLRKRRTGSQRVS
# T8 sequence (P29976 49-525 G244R): as the sequence (P29976 49-525 G244R) above
# T4 sequence (Q00218 34-507 G222S): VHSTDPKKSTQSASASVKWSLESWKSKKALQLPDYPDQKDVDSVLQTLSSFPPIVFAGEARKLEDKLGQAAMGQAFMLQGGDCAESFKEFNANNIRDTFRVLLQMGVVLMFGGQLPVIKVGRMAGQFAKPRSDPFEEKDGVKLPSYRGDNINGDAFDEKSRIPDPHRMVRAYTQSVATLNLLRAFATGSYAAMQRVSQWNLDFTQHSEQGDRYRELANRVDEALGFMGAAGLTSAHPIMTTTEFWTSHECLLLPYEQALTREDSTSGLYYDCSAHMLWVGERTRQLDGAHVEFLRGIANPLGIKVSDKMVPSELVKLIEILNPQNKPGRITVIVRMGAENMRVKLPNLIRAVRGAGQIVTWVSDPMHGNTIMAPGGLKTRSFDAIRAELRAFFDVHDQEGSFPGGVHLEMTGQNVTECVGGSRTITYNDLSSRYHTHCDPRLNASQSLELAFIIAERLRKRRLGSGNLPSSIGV
# T7 sequence (Q00218 34-507 G222S): as above
# T5 sequence (P29976 49-525): as the sequence (P29976 49-525) above
# T6 sequence (Q00218 34-507): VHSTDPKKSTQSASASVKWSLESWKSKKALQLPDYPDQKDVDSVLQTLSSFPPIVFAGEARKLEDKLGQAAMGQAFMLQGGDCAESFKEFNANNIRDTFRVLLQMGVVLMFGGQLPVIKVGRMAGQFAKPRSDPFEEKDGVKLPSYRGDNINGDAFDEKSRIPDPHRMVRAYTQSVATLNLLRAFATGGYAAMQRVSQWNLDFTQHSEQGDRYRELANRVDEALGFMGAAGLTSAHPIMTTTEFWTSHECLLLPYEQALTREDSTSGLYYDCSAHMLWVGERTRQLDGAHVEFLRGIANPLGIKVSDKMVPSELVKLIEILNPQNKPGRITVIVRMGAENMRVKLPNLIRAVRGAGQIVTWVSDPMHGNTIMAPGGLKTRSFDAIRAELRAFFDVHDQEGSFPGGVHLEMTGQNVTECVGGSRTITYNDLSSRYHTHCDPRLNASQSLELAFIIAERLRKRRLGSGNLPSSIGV
# T2 sequence (Q00218 34-507): as above
compound,measurement,setting,value
"O=C(O)C(O)Cc1c[nH]c2ccccc12 (stereo not drawn) [ILA, Indole-3-lactate]",effect of feeding on plant growth,[1],growth inhibition
same,effect on DHS1 activity (effector screening),[2]; FIG. 2D,reduced the activity
same,IC50,"[2]; recombinant enzyme, read-out: IC50 of effector molecule on DHS1^WT",210 µM
same,effect on DHS2 activity (effector screening),[3],reduced the activity
same,IC50,"[4]; DHS1^B4, 4 mM E4P, 4 mM PEP, pH 7.4, 37° C.",2880 µM
C=C(O[C@@H]1C=C(C(=O)O)C=C[C@H]1O)C(=O)O [Chorismate],IC50,[5],101 µM
same,inhibition of DHS2^A4,"[5]; up to 1 mM Tyr, Trp (FIG. 2C), shikimate, arogenate, prephenate at 1 mM (FIG. 21A)",still inhibited
same,inhibition of all Arabidopsis DHS isoforms,[6],strongly inhibit all Arabidopsis DHS isoforms
same,IC50,[7],14.6 µM
same,IC50,[8],81 µM
same,inhibition of DHS2^A4 activity,[9]; effector up to 1 mM,still inhibited
same,IC50,"[9]; recombinant enzyme, read-out: IC50 of effector molecule on DHS2^A4",102 µM
same,inhibition of DHS1^B4 activity,[10],still strongly inhibited
same,IC50,"[10]; recombinant enzyme, read-out: IC50 of effector molecule on DHS1^B4",25.3 µM
same,IC50,[4],25.3 µM
same,inhibition of DHS1^B4,[4]; FIG. 19,still strongly inhibited
Arabidopsis DHS1 sotaB4 mutant: Arabidopsis DHS1 enzyme with the sotaB4 mutation (G244R),production of tyrosine and phenylalanine in the tobacco plant,[11],significantly elevated production
"O=C[C@H](O)[C@H](O)COP(=O)(O)O [E4P, erythrose-4-phosphate]",Km for E4P,[12],high
